Experimental data from patent US10391068B2 (priority 2012, dated 2019).
Values joined by “and” are separate entries in the source; they are usually repeats but may differ in a detail not shown here. Equal entries are not always repeated. “Also recorded” adds a separate entry of the source. Where two headings read alike, the source gives them in different places.

Columns and labels:
recombinant C-PrP = recombinant C-PrP (Mus musculus, UniProt P04925); experiment: biochemical; format: binding
recombinant mouse PrP^C = recombinant mouse PrP^C (Mus musculus, UniProt P04925); experiment: biochemical; format: binding
PrP^23-230 = PrP^23-230 (Mus musculus, UniProt P04925); format: binding
moPrP (23-230) [1] = biological target: T1, moPrP (23-230) (Mus musculus, UniProt P04925); format: biochemical
human recombinant PrP^C = human recombinant PrP^C (Homo sapiens, UniProt P04156); experiment: biochemical; format: binding
moPrP (23-230) [2] = biological target: T1, moPrP (23-230)
C-PrP (120-230) = C-PrP (120-230) (Mus musculus, UniProt P04925); format: binding
[3] = biological target: T2, N-PrP / C-PrP interaction (Mus musculus, UniProt P04925); format: biochemical
[4] = biological target: Aβ oligomers binding to N-PrP (Mus musculus, UniProt P04925)
[5] = tested on: postnatal mouse hippocampal neurons treated with Aβ oligomers; format: cell-based
[6] = format: binding; conditions: read-out: KD (did not bind detectably)
[7] = tested on: Aβ oligomer inhibition of LTP in hippocampal slices; format: cell-based, mice
bovine serum albumin = bovine serum albumin (Bos taurus, UniProt P02769); experiment: biochemical
Sequence of bovine serum albumin (P02769 25-607): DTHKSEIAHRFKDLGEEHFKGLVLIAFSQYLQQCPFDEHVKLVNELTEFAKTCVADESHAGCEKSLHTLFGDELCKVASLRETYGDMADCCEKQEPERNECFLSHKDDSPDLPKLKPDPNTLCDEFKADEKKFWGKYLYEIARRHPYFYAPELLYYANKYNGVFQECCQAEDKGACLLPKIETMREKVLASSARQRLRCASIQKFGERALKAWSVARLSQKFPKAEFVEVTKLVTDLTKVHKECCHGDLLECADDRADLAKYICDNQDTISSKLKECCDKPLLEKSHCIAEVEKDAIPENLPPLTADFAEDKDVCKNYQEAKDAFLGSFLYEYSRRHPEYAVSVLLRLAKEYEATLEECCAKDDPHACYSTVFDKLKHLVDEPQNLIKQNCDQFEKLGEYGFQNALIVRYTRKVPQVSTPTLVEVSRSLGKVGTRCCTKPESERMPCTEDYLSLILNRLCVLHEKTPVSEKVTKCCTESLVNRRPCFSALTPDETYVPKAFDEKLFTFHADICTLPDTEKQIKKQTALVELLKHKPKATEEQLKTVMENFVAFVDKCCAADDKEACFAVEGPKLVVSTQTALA

moPrP (23-230) [8] = format: binding, mouse
[9] = biological target: Aβ oligomers binding to PrP^C (Homo sapiens, UniProt P04156)
[10] = biological target: Aβ oligomers binding to PrP^C (Mus musculus, UniProt P04925); experiment: biochemical
N-PrP (23-111) [11] = biological target: T3, N-PrP (23-111) (Mus musculus, UniProt P04925); format: biochemical
[12] = tested on: Aβ oligomer binding to PrP-expressing HEK cells; format: cell-based
N-PrP (23-111) [13] = biological target: T3, N-PrP (23-111); format: binding
[14] = biological target: T2, N-PrP / C-PrP interaction; format: binding
[15] = biological target: Recombinant C-PrP (residues 120-230) (Mus musculus, UniProt P04925); format: binding
BSA = BSA (Bos taurus, UniProt P02769); format: binding
myoglobin = myoglobin (Equus caballus, UniProt P68082); format: binding
Sequence of myoglobin (P68082 2-154): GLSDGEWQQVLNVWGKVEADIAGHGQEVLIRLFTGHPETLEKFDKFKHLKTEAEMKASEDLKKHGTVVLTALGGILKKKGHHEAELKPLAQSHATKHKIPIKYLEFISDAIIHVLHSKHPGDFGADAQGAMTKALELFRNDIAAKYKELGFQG

## 2R,3S,4S,5S,6R)-2-(hydroxymethyl)-6-[β-hydroxyphenyl)amino]tetrahydro-2H-pyran-3,4,5-triol [DS5]
Recombinant C-PrP
  competition with / displacement of DS104 (in words): able to displace DS104; also recorded: competed with DS104
Recombinant mouse PrP^C
  binding to PrP^C by SPR (in words): lower affinity; also recorded: also bind to PrP^C

## FC(F)(F)c1cccc(COn2c(-c3ccccc3)nc3ncccc32)c1 [DS15, reference compound]
PrP^23-230
  binding to PrP^C by EqD (in words): No binding was observed
moPrP (23-230) [1]
  Trp fluorescence of full-length PrP (in words): did not produce any change in Trp fluorescence; also recorded: did not alter the trp fluorescence

## NC(=S)NN=C1C(O)C(O)C(O)C(O)C1O [DS26, 2-(2R,3S,5R,6S-pentahydroxycyclohexylidene)hydrazinecarbothioamide]
Human recombinant PrP^C
  Kd: 0.571 µM
  binding to human versus mouse PrP^C (in words): identical affinity
moPrP (23-230) [2]
  far-UV CD spectrum of PrP^C (in words): did not detectably alter the CD spectrum of PrP^C; also recorded: does not affect the far-UV CD spectrum
C-PrP (120-230)
  binding to C-PrP (in words): bound; also recorded: binds
[3]
  co-immunoprecipitation of C-PrP with N-PrP (in words): Co-immunoprecipitation of the two PrP fragments occurred only after incubation with DS26; also recorded: C-PrP was immunoprecipitated with N-PrP only in the presence of DS26
[4]
  inhibition of Aβ oligomer binding to N-PrP (in words): failed to inhibit the binding of Aβ oligomers to N-PrP
Recombinant C-PrP
  Kd: 0.3 µM
  competition with / displacement of DS104 (in words): able to displace DS104; also recorded: competed with DS104
PrP^23-230
  binding to PrP^C by EqD (in words): retained by PrP^C in the sample chamber
  decrease in the concentration of compound in the assay chamber: 75%
[5]
  levels of synaptic markers after Aβ oligomers (in words): significantly rescued the levels of all the synaptic markers; also recorded: blocks the toxic effects of Aβ oligomers
  levels of synaptic markers with compound alone (in words): not significantly altered
[6]
  Kd: > 1000 µM
[7]
  LTP after Aβ oligomer exposure (in words): significantly reversed the inhibitory effect of Aβ oligomers on LTP; also recorded: significantly (*p<0.05) enhances LTP after Aβ exposure
  LTP with compound alone (in words): No change in LTP was detected
Bovine serum albumin
  Kd: > 1000 µM
Recombinant mouse PrP^C
  DS26 remained bound to PrP^C after washing: 70%
  Kd: 0.571 µM
  binding to PrP^C by SPR (in words): sub-micromolar affinity; also recorded: higher affinity; also recorded: stereospecific; also recorded: bound; also recorded: binds; also recorded: bind to PrP^C
  koff: 0.00014 s⁻¹
  kon: 245 M⁻¹ s⁻¹
  rate of dissociation (Koff) from PrP^C (in words): particularly slow rate of dissociation; also recorded: remarkably slow dissociation kinetics
Recombinant mouse PrP^C; read-out: half-life for the bound state
  residence time: 83 min
Recombinant mouse PrP^C; read-out: koff rate
  koff: 0.00014 s⁻¹
Recombinant mouse PrP^C; read-out: kon rate
  kon: 245 M⁻¹ s⁻¹
moPrP (23-230) [1]
  Trp fluorescence of full-length PrP (in words): dose-dependent quenching; also recorded: quenched the trp fluorescence in a dose-dependent manner
moPrP (23-230) [8]
  difference in Tm versus PrP^C alone: 2.11 °C
  melting temperature (Tm) of PrP in presence of compound: 68.93±0.1 °C and 68.9 °C
[9]
  release of Aβ oligomers pre-bound to PrP^C (in words): unable to release Aβ that was already attached to PrP^C; also recorded: unable to dislodge Aβ oligomers
PrP^Sc replication
  PrP^Sc replication in vitro (in words): partially inhibits
[10]
  IC50: ~15 µM
  inhibition of Aβ oligomer binding to PrP^C by SPR (in words): inhibited binding of Aβ oligomers to PrP^C in a dose-dependent fashion; also recorded: decreased the binding of Aβ oligomers to PrP^C in a dose-dependent manner; also recorded: prevents binding of Aβ oligomers
  reduction of the Aβ oligomer-PrP^C interaction: more than 90%
N-PrP (23-111) [11]
  Trp fluorescence of N-PrP (in words): unaffected; also recorded: did not alter the trp fluorescence
[12]
  estimated IC50 on cells (in words): higher than the corresponding value observed by SPR and ELISA
  inhibition of Aβ oligomer binding to PrP^C on cells (in words): dose-dependent inhibition of Aβ binding; also recorded: inhibits binding of Aβ oligomers to PrP^C on cells
N-PrP (23-111) [13]
  binding to N-PrP (in words): failed to bind
[14]
  N-PrP binding to C-PrP by SPR (in words): N-PrP interacted with C-PrP only after pre-injection of DS26; also recorded: N-PrP bound to C-PrP that had been pre-treated with DS26

## OC[C@@H](O)[C@H](O)[C@@H](O)c1nnn[nH]1 [DS40, (1S,2R,3R)-1-(1H-tetrazol-5-yl)butane-1,2,3,4-tetrol]
Human recombinant PrP^C
  Kd: 0.801 µM
  binding to human versus mouse PrP^C (in words): identical affinity
C-PrP (120-230)
  binding to C-PrP (in words): bound
Recombinant C-PrP
  competition with / displacement of DS104 (in words): able to displace DS104; also recorded: competed with DS104
Recombinant mouse PrP^C
  binding to PrP^C by SPR (in words): lower affinity; also recorded: bind to PrP^C
  rate of dissociation (Koff) from PrP^C (in words): particularly slow rate of dissociation
N-PrP (23-111) [13]
  binding to N-PrP (in words): failed to bind

## O=C1OC(C(O)C(O)CO)C(O)C1O (stereo not drawn) [DS86, 3R,4S-dihydroxy-5S-(1,2,3-trihydroxypropyl)dihydrofuran-2(3H)-one]
Recombinant mouse PrP^C
  binding to PrP^C by SPR (in words): lower affinity; also recorded: also bind to PrP^C

## O=C(O)c1cc(NC(=S)NN=C2C(O)C(O)C(O)C(O)C2O)ccc1-c1c2ccc(=O)cc-2oc2cc(O)ccc12 [DS104, (Z)—N-(3′,6′-dihydroxy-3-oxo-3H-spiro[isobenzofuran-1,9′-xanthen]-5-yl)-2-((2R,3R,4S,5R,6S)-2,3,4,5,6-pentahydroxycyclohexylidene)hydrazinecarbothioamide]
[15]
  Kd: 4 µM
BSA
  binding to BSA by FP: not detected
myoglobin
  binding to myoglobin by FP: not detected

## COc1ccc(CCNC(=S)N/N=C2\[C@@H](O)[C@@H](O)[C@@H](O)[C@H](O)[C@H]2O)cc1OC [DS207]
Recombinant mouse PrP^C
  Kd: 64.8 µM
  binding to PrP^C by SPR (in words): bind to PrP^C

## CC(C)(C)NC(=S)N/N=C1\[C@@H](O)[C@@H](O)[C@@H](O)[C@H](O)[C@H]1O [DS210]
Recombinant mouse PrP^C
  Kd: 63.1 µM
  binding to PrP^C by SPR (in words): bind to PrP^C

## O[C@@H]1[C@H](O)[C@H](O)/C(=N\NC(=S)NCc2ccc(F)cc2)[C@H](O)[C@H]1O [DS211]
Recombinant mouse PrP^C
  Kd: 62.3 µM
  binding to PrP^C by SPR (in words): bind to PrP^C

## O=C(CN1CCCC1)Nc1ccc(Cc2ccc(NC(=O)CN3CCCC3)cc2)cc1 [GN8, N,N′-(methylenedi-4,1-phenylene)bis[2-(1-pyrrolidinyl)acetamide], reference compound]
PrP^23-230
  binding to PrP^C by EqD (in words): No binding was observed; also recorded: failed to detect binding
Recombinant mouse PrP^C
  Kd: > 1000 µM
  binding to PrP^C by SPR (in words): does not bind; also recorded: no detectable binding; also recorded: failed to bind; also recorded: failed to detect binding
[10]
  inhibition of Aβ oligomer binding to PrP^C by SPR (in words): does not bind PrPC in the SPR assay used for studying the binding of PrPC ligands to PrPC or inhibit binding of Aβ oligomers to PrP^C
